Patent EP4414363A1, “INDOLYLACETIC DERIVATIVES FOR USE IN THE TREATMENT OF NEURODEGENERATIVE DISEASES” (Miuli Pharma S.r.l., priority 2023, dated 2024)

Columns and labels:
[1] = from reference [15]; cited from earlier work
iNOS = experiment: Western blot of LPS-induced iNOS expression in microglia cells; format: cell-based, murine; conditions: BV2 microglial cells, LPS 100 ng/mL, compound 100nM, 24h
Method: (§1) Human neuroblastoma SH-SY5Y cells (Cell bank Line Collection ICLC) and immortalized murine microglial BV-2 cell line were grown as monolayers in polystyrene dishes (12 or 6 wells plate) in Dulbecco's modified Eagle's medium (DMEM) with 10% (v/v) fetal bovine serum (FBS), L glutamine (2 mM), 1% penicillin (50 IU/ml) and streptomycin (50 µg/ml). Cells were grown in a humidified atmosphere containing 95% air and 5% CO2, and the medium was changed every two days. All experiments were conducted in cultures containing cells between the 4th and 8th passages.
(§2) SH-SY5Y and BV-2 cells were plated with a confluence of 65.000 cell/mL. After 24 hours of cell seeding, medium was changed for 6h starvation in a medium containing 0% FBS. […]
(§3) Cells were exposed to compounds or vehicle and, after 24 hours, have been analyzed for Western Blotting experiments or MTT assay.
(§4) Western blot analysis was performed as previously described. Protein samples (50 µg) were analyzed on 8% subjected to SDS-polyacrylamide gel electrophoresis (SDS-PAGE) and electrotransferred onto Hybond ECL nitrocellulose paper (Amersham, Milan, Italy). […]
(§5) Immunoreactive bands were detected using ECL (Amersham). The optical density of the bands (normalized for β-actin) was determined by Chemi-Doc Imaging System (Bio-Rad, Segrate, Italy).

TNF-α = experiment: Western blot of LPS-induced TNF-α expression in microglia cells; format: cell-based, murine; conditions: BV2 microglial cells, LPS 100 ng/mL, compound 100nM, 24h
Method: as §1, §2, §3, §4, §5

SOD1^G93A mice [2] = experiment: Rotarod test (motor coordination and balance); format: in vivo
Text: (§6) B6SJL-TgN SOD1/G93A(+)1Gur mice expressing high copy number of mutant human SOD1 with a Gly93Ala substitution [SOD1^G93A] and B6SJL-TgN (SOD1)2Gur mice expressing wild-type human SOD1 (WT) were obtained from Jackson Laboratories (Bar Harbor, ME, USA). Transgenic animals have been crossed with background-matched B6SJL wild-type female and selective breeding maintained each transgene in the […] state. All transgenic mice were identified analyzing extracts from tail tips by staining for SOD1 as previously described.
(§7) Overall, 24 male and female mice housed under diurnal lighting conditions (12 h darkness/light) were used. The number of female and male mice was balanced among all the experimental groups.
(§8) The newly synthesized compound III, dissolved in distilled water, was intraperitoneally administered daily at a dose of […], beginning at 2 months of age until 4,5 months of age.
Motor coordination and balance was assessed using a five-station mouse rotarod apparatus (Ugo Basile; Milan, Italy) as previously described. In each station, the rod was 6 cm in length and 3 cm in diameter. Mice were trained to maintain balance at increasing speed up to a constant speed of 14 rpm for three consecutive trials. The test sessions were conducted by one rotarod trial administered once a week. In this session, the speed of rotation was increased from 4 to 14 rpm over 60 s. Mice had three trials on the rod, and the latencies to fall were measured once a week and then averaged. […] Weekly evaluation of hind limb paralysis was performed. […] Body weight was measured immediately before each session of behavioral tests.
To investigate whether the reduced neuroinflammatory response observed in vitro through the effect on TNF-α expression was accompanied by an amelioration of the motor performance of these mice, behavioral tests were weekly performed on WT and SOD1^G93A mice, starting from the second month after birth (P60), when i.p. administration of compound III started and when the mice were asymptomatic. […]

[3] = Body weight during prolonged treatment; format: in vivo, mice
Text: as §6, §7, §8
(§9) Motor coordination and balance was assessed using a five-station mouse rotarod apparatus (Ugo Basile; Milan, Italy) as previously described. In each station, the rod was 6 cm in length and 3 cm in diameter. […] Mice had three trials on the rod, and the latencies to fall were measured once a week and then averaged. […] Body weight was measured immediately before each session of behavioral tests. […]

SOD1^G93A mice [4] = experiment: Survival of ALS mice under prolonged treatment; format: in vivo; conditions: daily i.p. from 2 months of age, dose group not stated, vehicle 127.9 ± 1.65 days
Text: as §6, §7, §8
Disease end stage was defined by the inability of mice to right themselves within 20 s when placed on their sides.
Data were evaluated as means ± SEM. Statistically significant differences among means were determined by one-way ANOVA followed by Student-Newman-Keuls/Bonferroni post-hoc test for western blotting, and Behavioral test. The Kaplan-Meier plot was used to evaluate survival, grip, rotarod and paralysis onset. Student's t-test was used for two groups comparison. […]

COX2 = experiment: Western blot of COX2 expression in LPS-exposed microglia cells; format: cell-based, murine; conditions: BV2 microglial cells, LPS 100 ng/mL, compound 100nM, 24h
Method: as §1, §2, §3, §4, §5

SOD1^G93A mice [5] = experiment: Paralysis onset in ALS mice; format: in vivo; conditions: daily i.p., dose group not stated, vehicle 33.69 ± 1.31 days
Text: as §6, §7, §8, §9

SOD1^G93A mice [6] = experiment: Hind limb grip test; format: in vivo
Text: as §6, §7, §8
Hind limb grip test was carried out by placing the mouse on a grid (45 cm long × 28 cm large) upside-down (30 cm above a foam pad). The test was performed once a week and the latency to fall off the grid was also measured up to a maximum of 60 s.
To investigate whether the reduced neuroinflammatory response observed in vitro through the effect on TNF-α expression was accompanied by an amelioration of the motor performance of these mice, behavioral tests were weekly performed on WT and SOD1^G93A mice, starting from the second month after birth (P60), when i.p. administration of compound III started and when the mice were asymptomatic. All animals were assigned to three experimental groups: SOD1^G93A+vehicle, SOD1 ^G93A +compound III at 1 mg/kg, and SOD1 ^G93A +compound III at 10 mg/kg, and then weighed, subjected to rotarod test, grip test and observed to detect the disease onset.

COc1ccc2c(c1)c(CC(=O)O)c(C)n2C1CCN(C)CC1 [Compound II, 2-(5-methoxy-2-methyl-1-(1-methylpiperidin-4-yl)-1H-indol-3-yl)acetic acid]
gastric damage evaluated as the lengths of the lesions [1]: 0 mm
iNOS induction elicited by LPS (iNOS): prevent iNOS induction

CCOC(=O)Cc1c(C)n(C2CCN(C)CC2)c2ccc(OC)cc12 [Compound III, Ethyl 2-(5-methoxy-2-methyl-1-(1-methylpiperidin-4-yl)-1H-indol-3-yl)acetate]
gastric damage evaluated as the lengths of the lesions [1]: 3 ± 0.6 mm
overexpression of TNF-α induced by LPS exposure (TNF-α): prevent the overexpression of TNF-α
rotarod: time able to balance on the rotarod (SOD1^G93A mice [2]; SOD1^G93A mice, at 8 weeks of treatment, vehicle 3.7±1 sec, maximum 60 s): 21.4 ± 5 s
rotarod onset (50% of the animals started to fall off the rotarod) (SOD1^G93A mice [2]; SOD1^G93A mice, day of treatment, vehicle around the 30th day): ~45 days
rotarod performance (SOD1^G93A mice [2]; wild type mice): did not disrupt this performance
body weight ([3]; SOD1^G93A mice treated for 8 weeks, vehicle group 10% reduction at 7 weeks): remained stable over time
body weight ([3]; WT mice, compound versus vehicle): No differences were observed
average lifespan (SOD1^G93A mice [4]): 146.2 ± 3 days
COX2 expression (COX2): not COX2
paralysis onset (SOD1^G93A mice [5]): 42.47 ± 1.59 days
onset of grip performance loss (50% of the animals started to lose their grip) (SOD1^G93A mice [6]; G93A mice, day after treatment, vehicle around the 35th day): ~45 days
grip performance (latency to fall off the grid) (SOD1^G93A mice [6]; SOD1^G93A mice, at 6 weeks of treatment, vehicle 28.8 ± 4 sec, maximum 60 s): 43.8 ± 4 s
grip performance (time remained on the grid) (SOD1^G93A mice [6]; SOD1^G93A mice, at 8 weeks of treatment): 20 s

COc1ccc2c(c1)c(CC(=O)O)c(C)n2C(=O)c1ccc(Cl)cc1 [indomethacin, reference compound]
gastric damage evaluated as the lengths of the lesions [1]: 50 ± 8 mm
